From patent US8236756B2, “Prodrugs cleavable by CD26” (Consejo Superior de Investigaciones Clentificas (CSIC), priority 2003, dated 2012)

Columns and labels:
[1] = Conversion of prodrugs to parent compound by human serum diluted in PBS; type: in vitro ADME; settings: 2% HS in PBS
Method: (§1) Human and bovine serum were incubated for 3 hr, 6 hr and/or 24 hr at 37° C. in the presence of 50 μM CAM-405. The sera were diluted in PBS at a final concentration of 0.5, 1, 2.5 or 5%. […] The longer the incubation time, and the higher the serum concentration used, the faster the conversion of CAM-405 to CAM-212 occurred (FIG. 4). As also noted for CD26, HS- and BS-catalysed reaction slowed down in function of time, and was not linearly proportional with serum concentration (FIG. 4). These findings provide again evidence for a pronounced feed-back inhibition of dipeptidyl-peptidase activity in human and bovine serum by the released Val-Pro dipeptide. HS was more efficient in converting CAM-405 to CAM-212 than BS (FIG. 4). Since 1% HS is able to hydrolyse ˜20% of 50 μM CAM-405 within 3 hrs of incubation, it could be calculated that undiluted serum would have been able to convert this prodrug amount to its parent compound at a hundred fold higher speed, that is, within 1.8 min, provided that no feed-back inhibition would have occurred (as expected in the intact organism where release of Pro-Val would immediately result in disappearance from the plasma due to several mechanisms including organ uptake, renal excretion, etc.).
Only a very limited amount of NAP-TSAO (but not D-Pro-NAP-TSAO) had been detected (FIG. 6).
(§2) Ten percent BS or HS converted 40 to 70% of PI-2 to PI-1 in one hour (FIG. 10). Two percent BS and HS converted PI-2 to PI-1 by 8% and 25%, respectively. After 4 hrs, 35% and 95% of compound was hydrolyzed by BS and HS, respectively (FIG. 11).
(§3) The TSAO derivatives depicted in FIG. 1 can be synthesised as described below. GlyPro-pNA (GP-pNA), Diprotin A and Val-Pro were purchased from Sigma-Aldrich (Bornem, Belgium). CD26 was purified as described before [De Meester et al. J. Immunol. Methods (1996), 189: 99-105]. Foetal bovine serum (FBS) was obtained from Integro (Dieren, The Netherlands). Human serum represented a pooled serum that was derived from 10 healthy volunteers (blood donors). Human lymphocyte CEM cells were derived from the ATCC (Rockville, Md.).

[2] = Conversion of prodrugs to parent compound by bovine serum diluted in PBS; type: in vitro ADME; settings: 2% BS in PBS
Method: as §1, §2, §3

purified CD26 = biological target: T1, purified CD26 (Homo sapiens, UniProt P27487); experiment: Conversion of peptide prodrugs to parent compound by purified CD26 (HPLC); type: biochemical; settings: purified CD26; within 60 min
T1 construct: made in house
T1 sequence (P27487 whole entry): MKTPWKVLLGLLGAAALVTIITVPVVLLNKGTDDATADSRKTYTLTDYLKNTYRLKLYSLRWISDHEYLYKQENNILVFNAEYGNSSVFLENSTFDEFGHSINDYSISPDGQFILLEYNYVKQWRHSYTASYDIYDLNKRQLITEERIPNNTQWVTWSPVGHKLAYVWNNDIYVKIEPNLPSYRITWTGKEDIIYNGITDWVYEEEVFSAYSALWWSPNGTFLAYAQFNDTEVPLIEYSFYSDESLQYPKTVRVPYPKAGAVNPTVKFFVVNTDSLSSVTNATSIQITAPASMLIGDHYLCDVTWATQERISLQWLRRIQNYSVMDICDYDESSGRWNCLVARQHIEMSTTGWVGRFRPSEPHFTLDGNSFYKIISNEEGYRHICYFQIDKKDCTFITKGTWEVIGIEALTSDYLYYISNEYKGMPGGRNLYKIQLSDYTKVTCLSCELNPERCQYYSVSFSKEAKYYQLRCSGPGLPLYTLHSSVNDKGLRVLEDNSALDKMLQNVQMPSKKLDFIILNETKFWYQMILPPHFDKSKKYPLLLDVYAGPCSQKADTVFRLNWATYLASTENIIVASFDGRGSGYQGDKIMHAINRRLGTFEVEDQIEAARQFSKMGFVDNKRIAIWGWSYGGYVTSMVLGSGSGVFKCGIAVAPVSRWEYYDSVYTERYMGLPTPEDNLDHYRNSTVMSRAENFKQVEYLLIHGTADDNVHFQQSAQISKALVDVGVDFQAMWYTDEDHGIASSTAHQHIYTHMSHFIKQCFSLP
How it was run: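 Peptide prodrugs of lipophilic nucleoside analogues were incubated with purified human CD26 at a final concentration of 1.5 milliUnits in PBS at pH 7.5, 37° C, in a 400 μl reaction started by enzyme addition. Samples were mixed with cold methanol to precipitate protein, centrifuged, and the supernatants analysed by reverse-phase HPLC to quantify conversion to the parent compound.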

[3] = Inhibition of GP-pNA conversion to pNA by 2% bovine serum; type: biochemical; settings: 2% BS in PBS
CD26 = biological target: T2, CD26 (Homo sapiens, UniProt P27487); experiment: Inhibition of CD26-catalysed conversion of GP-pNA to GP+pNA (pNA release, absorption at 400 nm); type: biochemical; settings: 50 μM GP-pNA
T2 construct: made in house
T2 sequence (P27487 whole entry): as above
Method: The CD26 catalytic reaction was measured by recording the increase of absorption caused by pNA release at 400 nm.
To reveal whether CD26 recognizes such synthetic di/tripeptide derivatives of lipophilic nucleoside analogues as a substrate, 50 μM CAM-405 or CAM-431 was exposed to 5.7 mUnits of purified CD26, and the conversion of CAM-405 or CAM-431 to respectively CAM-212 or CAM-403 (Val-NAP-TSAO) was recorded in function of incubation time by HPLC analysis. […] The inhibitory activity of any dipeptide can be evaluated by the above mentioned assay.

[4] = Inhibition of GP-pNA conversion to pNA by 2% human serum; type: biochemical; settings: 2% HS in PBS
[5] = time not restated (one hour in the sentence before)

Compound hydrolyzed by HS after 4 hrs ([1]; 4 hrs): 95% | Conversion to PI 1 by two percent HS [1, 5]: 25% | Compound hydrolyzed by BS after 4 hrs ([2]; 4 hrs): 35% | Conversion to PI 1 by two percent BS [2, 5]: 8% | Conversion of Val-Pro-PI 1 (PI-2) to PI 1 by purified CD26 within 60 min, in words (purified CD26): completely converted | Inhibition of release of pNA from GP-pNA at 20 μM, in words (CD26; 20 μM): could inhibit | Competition with GP-pNA for CD26 at 100 μM, in words (CD26; 100 μM): efficiently competed
SMILES: CC(C)CN(C[C@@H](O)[C@H](Cc1ccccc1)NC(=O)O[C@H]1CO[C@H]2OCC[C@H]21)S(=O)(=O)c1ccc(CNC(=O)[C@@H]2CCCN2C(=O)[C@@H](N)C(C)C)cc1 [Val-Pro-PI 1]
Inhibition of GP-pNA conversion to pNA by two percent BS, in words [3]: even more efficiently inhibited | Inhibition of HS-catalysed GP-pNA conversion to pNA, in words [4]: competitively inhibited
